From patent publication US6949574B2 (Bristol-Myers Squibb Company, priority 2002, dated 2005)
Read-outs that look alike come from different tables or passages of the source.

Target: T1, human FAAH (Homo sapiens, UniProt O00519)
T1 construct: expressed in transfected cells; host or cells: H4 cells (H4-FAAH, Geneticin-selected); crude membrane homogenates
T1 sequence (O00519 1-579): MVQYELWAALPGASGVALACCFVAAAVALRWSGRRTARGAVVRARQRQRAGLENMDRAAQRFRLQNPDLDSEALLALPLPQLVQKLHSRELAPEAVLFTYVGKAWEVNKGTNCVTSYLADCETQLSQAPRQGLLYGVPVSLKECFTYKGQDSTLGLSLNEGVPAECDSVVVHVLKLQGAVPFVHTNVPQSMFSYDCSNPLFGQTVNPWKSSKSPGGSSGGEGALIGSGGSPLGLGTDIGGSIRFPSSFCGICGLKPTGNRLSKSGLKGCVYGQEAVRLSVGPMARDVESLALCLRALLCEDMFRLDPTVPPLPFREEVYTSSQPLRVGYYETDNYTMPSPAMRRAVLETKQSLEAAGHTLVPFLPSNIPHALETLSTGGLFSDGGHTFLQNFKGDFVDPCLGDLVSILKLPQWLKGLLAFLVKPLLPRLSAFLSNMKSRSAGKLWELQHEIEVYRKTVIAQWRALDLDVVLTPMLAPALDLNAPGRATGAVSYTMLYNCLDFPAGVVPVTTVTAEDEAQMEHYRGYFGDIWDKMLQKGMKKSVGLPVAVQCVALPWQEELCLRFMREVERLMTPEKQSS
Assay: FAAH activity in membrane homogenates of H4-FAAH cells, [3H]-anandamide hydrolysis
Type: biochemical
Summary of the method: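 Membranes (240 ng protein) from H4 cells expressing transfected human FAAH, incubated 1 h at room temperature in 125 mM Tris-Cl, pH 9.0, with 1.67 nM [3H]-anandamide plus 10 μM anandamide. Aqueous [3H]-ethanolamine counted after methanol/dichloroethane extraction; background set with 10 μM ATFMK. IC50 from four-parameter logistic fit.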

[1] = H4-FAAH cell membranes, 10 μM anandamide, room temperature, one hour, read-out: IC50

Row | SMILES | IC50 [nM] | IC50 [1] [nM]
1 | CCCCCCCCCCCOc1ccc(NC(=O)Oc2ccccc2F)cc1 [Example 104, 4-Undecyloxyphenylcarbamic acid, 2-fluorophenyl ester] | 10 to 100 | –
2 | CCCCCCCCCCCCOc1ccc(NC(=O)Oc2ccccc2)cc1 [Example 105, 4-Dodecyloxyphenylcarbamic acid, phenyl ester] | – | < 10
3 | CCCCCCCCCCCCOc1ccc(NC(=O)Oc2ccccc2F)cc1 [Example 106, 4-Dodecyloxyphenylcarbamic acid, 2-fluorophenyl ester] | – | 10 to 100
4 | CCCCOc1ccc(NC(=O)Oc2ccccc2F)cc1 [Example 107, 4-Butoxyphenylcarbamic acid, 2-fluorophenyl ester] | – | 101 to 500
5 | CCCCOc1ccc(NC(=O)Oc2ccc(F)cc2)cc1 [Example 108, 4-Butoxyphenylcarbamic acid, 4-fluorophenyl ester] | – | 101 to 500
6 | CCCCOc1ccc(NC(=O)Oc2ccc(F)c(F)c2)cc1 [Example 109, 4-Butoxyphenylcarbamic acid, 3,4-difluorophenyl ester] | – | > 500
7 | CCCCOc1ccc(NC(=O)Oc2ccccc2OC)cc1 [Example 110, 4-Butoxyphenylcarbamic acid, 2-methoxyphenyl ester] | – | > 500
8 | CCCCOc1ccc(CNC(=O)Oc2ccccc2)cc1 [Example 111, 4-(Butoxyphenylmethyl)carbamic acid, phenyl ester] | – | < 10
9 | CCCCOc1ccc(CNC(=O)Oc2ccccc2F)cc1 [Example 112, 4-(Butoxyphenylmethyl)carbamic acid, 2-fluorophenyl ester] | – | < 10
10 | CCCCOc1ccc(CNC(=O)Oc2ccc(OC)cc2)cc1 [Example 113, 4-(Butoxyphenylmethyl)carbamic acid, 4-methoxyphenyl ester] | – | < 10
11 | CCCCOc1ccc(CNC(=O)Oc2cccc3ccccc23)cc1 [Example 115, 4-(Butoxyphenylmethyl)carbamic acid, 1-naphthalenyl ester] | – | 10 to 100
12 | CCCCOc1ccc(CNC(=O)Oc2ccc3ccccc3c2)cc1 [Example 116, 4-(Butoxyphenylmethyl)carbamic acid, 2-naphthalenyl ester] | – | 10 to 100
13 | CCCCOc1ccc(CNC(=O)Oc2ccc(C(C)C)cc2)cc1 [Example 117, 4-(Butoxyphenylmethyl)carbamic acid, 4-(1-methylethyl)phenyl ester] | – | 10 to 100
14 | CCCCOc1ccc(CNC(=O)Oc2cccc(N(C)C)c2)cc1 [Example 118, 4-(Butoxyphenylmethyl)carbamic acid, 3-(dimethylamino)phenyl ester] | – | 10 to 100
15 | CCCCOc1ccc(CNC(=O)Oc2ccc(C(F)(F)F)cc2)cc1 [Example 119, 4-(Butoxyphenylmethyl)carbamic acid, 4-(trifluoromethyl)phenyl ester] | – | 10 to 100
16 | CCCCOc1ccc(CNC(=O)Oc2ccc(F)cc2F)cc1 [Example 120, 4-(Butoxyphenylmethyl)carbamic acid, 2,4-difluorophenyl ester] | – | < 10
17 | CCCCOc1ccc(CNC(=O)Oc2ccc(F)cc2)cc1 [Example 121, 4-(Butoxyphenylmethyl)carbamic acid, 4-fluorophenyl ester] | – | < 10
18 | CCCCOc1ccc(CNC(=O)Oc2cccc(Cl)c2)cc1 [Example 122, 4-(Butoxyphenylmethyl)carbamic acid, 3-chlorophenyl ester] | – | 10 to 100
19 | O=C(Nc1ccc(Oc2ccccc2)cc1)Oc1ccccc1F [Example 123, 4-Phenoxyphenylcarbamic acid, 2-fluorophenyl ester] | – | > 500

Row | SMILES | IC50 [nM] | IC50 [1] [nM]
20 | CCc1ccc(-c2ccc(NC(=O)Oc3ccccc3F)cc2)cc1 [Example 124, 4′-Ethyl-[1,1′-biphenyl]-4-ylcarbamic acid, 2-fluorophenyl ester] | > 500 | –
21 | CCCCOc1ccc(C(CC)NC(=O)Oc2ccc(OC)cc2)cc1 (stereo not shown) [Example 126, [1-(4-Butoxy-phenyl)-propyl]-carbamic acid 4-methoxy-phenyl ester] | – | 10 to 100
22 | CCCCOc1ccc(C(CC)NC(=O)Oc2cccc3ccccc23)cc1 (stereo not shown) [Example 127, [1-(4-Butoxy-phenyl)-propyl]-carbamic acid naphthalen-1-yl ester] | – | 101 to 500
23 | CCCCOc1ccc(C(CC)NC(=O)Oc2ccc3ccccc3c2)cc1 (stereo not shown) [Example 128, [1-(4-Butoxy-phenyl)-propyl]-carbamic acid naphthalen-2-yl ester] | – | 10 to 100
24 | CCCCOc1ccc(C(CC)NC(=O)Oc2ccc(C(C)C)cc2)cc1 (stereo not shown) [Example 129, [1-(4-Butoxy-phenyl)-propyl]-carbamic acid 4-isopropyl-phenyl ester] | – | 101 to 500
25 | CCCCOc1ccc(C(CC)NC(=O)Oc2cccc(C(F)(F)F)c2)cc1 (stereo not shown) [Example 130, [1-(4-Butoxy-phenyl)-propyl]-carbamic acid 3-trifluoromethyl-phenyl ester] | – | 10 to 100
26 | CCCCOc1ccc(C(CC)NC(=O)Oc2ccc(F)cc2F)cc1 (stereo not shown) [Example 131, [1-(4-Butoxy-phenyl)-propyl]-carbamic acid 2,4-difluoro-phenyl ester] | – | 10 to 100
27 | CCCCOc1ccc(C(CC)NC(=O)Oc2ccc(F)cc2)cc1 (stereo not shown) [Example 132, [1-(4-Butoxy-phenyl)-propyl]-carbamic acid 4-fluoro-phenyl ester] | – | 10 to 100
28 | CCCCOc1ccc(C(CC)NC(=O)Oc2ccccc2)cc1 (stereo not shown) [Example 134, [1-(4-Butoxy-phenyl)-propyl]-carbamic acid phenyl ester] | – | 10 to 100
29 | CCCCOc1ccc(C(CC)NC(=O)Oc2ccccc2F)cc1 (stereo not shown) [Example 135, [1-(4-Butoxy-phenyl)-propyl]-carbamic acid 2-fluoro-phenyl ester] | – | < 10
30 | CCCCCCCCC(=O)Nc1ccc(NC(=O)O/N=C/c2ccccc2)cc1 [Example 136, Benzaldehyde, O-[[(4-Nonanoylamino-phenyl)amino]carbonyl]oxime] | – | 10 to 100
31 | CCCCCCCCC(=O)Nc1ccc(NC(=O)O/N=C/c2ccc(F)cc2)cc1 [Example 137, 4-Fluorobenzaldehyde, O-[[(4-Nonanoylamino-phenyl)amino]carbonyl]oxime] | – | 10 to 100
32 | CCCCCCCCC(=O)Nc1ccc(NC(=O)O/N=C/c2cccc(C(F)(F)F)c2)cc1 [Example 138, 3-Trifluoromethylbenzaldehyde, O-[[(4-Nonanoylamino-phenyl)amino]carbonyl]oxime] | – | 10 to 100
33 | CCCCCCCCC(=O)Nc1ccc(NC(=O)O/N=C/c2ccc(F)cc2F)cc1 [Example 139, 2,4-Difluorobenzaldehyde, O-[[(4-Nonanoylamino-phenyl)amino]carbonyl]oxime] | – | < 10
34 | CCCCCCCCC(=O)Nc1ccc(NC(=O)O/N=C/c2ccc(F)c(F)c2)cc1 [Example 140, 3,4-Difluorobenzaldehyde, O-[[(4-Nonanoylamino-phenyl)amino]carbonyl]oxime] | – | 10 to 100
35 | O=C(Nc1ccc2[nH]ccc2c1)O/N=C/c1cccnc1 [Example 141, 3-Pyridinecarboxaldehyde, O-[[(1H-indol-5-yl)amino]carbonyl]oxime] | – | > 500
36 | O=C(Nc1ccc2[nH]ccc2c1)O/N=C/c1ccc(F)cc1 [Example 142, 4-Fluorobenzaldehyde, O-[[(1H-indol-5-yl)amino]carbonyl]oxime] | – | > 500
37 | O=C(Nc1ccc2[nH]ccc2c1)O/N=C/c1ccccc1 [Example 143, Benzaldehyde, O-[[(1H-indol-5-yl)amino]carbonyl]oxime] | – | > 500
